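How tested: cells in 96-well plates exposed to compound for 48 hours at five concentrations. Abbreviation: GI50, concentration required for 50% inhibition of growth.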 Activity calls are given as the source filed them. No stated cut-off is given here; in the data, active = GI50 up to about 1.1 µM and inactive = higher.
What was measured:
Test in all cases: inhibition of tumour cell growth, NCI panel, 48 h
[1] = test system: 786-0
[2] = test system: A498
[3] = test system: A549
[4] = test system: ACHN
[5] = test system: BT-549
[6] = test system: CAKI-1
[7] = test system: CCRF-CEM
[8] = test system: COLO 205
[9] = test system: DLD-1
[10] = test system: DMS-114
[11] = test system: DMS-273
[12] = test system: DU-145
[13] = test system: EKVX
[14] = test system: HCC 2998
[15] = test system: HCT-116
[16] = test system: HCT-15
[17] = test system: HL-60
[18] = test system: HOP-18
[19] = test system: HOP-62
[20] = test system: HOP-92
[21] = test system: HT-29
[22] = test system: Hs-578T
[23] = test system: IGROV-1
[24] = test system: K562
[25] = test system: KM-20L2
[26] = test system: KM12
[27] = test system: LOX IMVI
[28] = test system: LXFL 529
[29] = test system: M14
[30] = test system: MCF7
[31] = test system: MDA-MB-231
[32] = test system: MDA-MB-435
[33] = test system: MDA-N
[34] = test system: MOLT-4
[35] = test system: Malme-3M
[36] = test system: NCI-H226
[37] = test system: NCI-H23
[38] = test system: NCI-H460
[39] = test system: NCI-H522
[40] = test system: NCI/ADR-RES
[41] = test system: OVCAR-3
[42] = test system: OVCAR-4
[43] = test system: OVCAR-5
[44] = test system: OVCAR-8
[45] = test system: PC-3
[46] = test system: RPMI-8226
[47] = test system: RXF 393
[48] = test system: SF-268
[49] = test system: SF-295
[50] = test system: SF-539
[51] = test system: SK-MEL-28
[52] = test system: SK-MEL-2
[53] = test system: SK-MEL-5
[54] = test system: SK-OV-3
[55] = test system: SN12C
[56] = test system: SNB-19
[57] = test system: SNB-75
[58] = test system: SNB-78
[59] = test system: SR
[60] = test system: SW-620
[61] = test system: T47D
[62] = test system: TK-10
[63] = test system: U-251
[64] = test system: UACC-257
[65] = test system: UACC-62
[66] = test system: UO-31
[67] = test system: M19-MEL
[68] = test system: XF498

Nc1nc(O)c2[nH]nnc2n1 [8-AZAGUANINE]
GI50 [1]: 0.292 µM (active)
GI50 [2]: 11.6 µM (inactive)
GI50 [3]: 33 µM (inactive)
GI50 [4]: 16.3 µM (inactive)
GI50 [5]: 0.473 µM (active)
GI50 [6]: 0.304 µM (active)
GI50 [7]: 0.242 µM (active)
GI50 [8]: 13.3 µM (inactive)
GI50 [9]: 20 µM (inactive)
GI50 [10]: 6.5 µM (inactive)
GI50 [11]: 0.634 µM (active)
GI50 [12]: 0.684 µM (active)
GI50 [13]: 11.4 µM (inactive)
GI50 [14]: 19.2 µM (inactive)
GI50 [15]: 0.881 µM (active)
GI50 [16]: 24 µM
GI50 [17]: 0.326 µM (active)
GI50 [18]: 0.339 µM (active)
GI50 [19]: 0.326 µM (active)
GI50 [20]: 0.757 µM (active)
GI50 [21]: 26.1 µM (inactive)
GI50 [22]: 0.906 µM (active)
GI50 [23]: 63.8 µM (inactive)
GI50 [24]: 0.268 µM (active)
GI50 [25]: 9.2 µM (inactive)
GI50 [26]: 34.1 µM (inactive)
GI50 [27]: 0.223 µM (active)
GI50 [28]: 16.3 µM (inactive)
GI50 [29]: 0.292 µM (active)
GI50 [30]: 40.8 µM (inactive)
GI50 [31]: 5.82 µM (inactive)
GI50 [32]: 0.265 µM (active)
GI50 [33]: 0.308 µM (active)
GI50 [34]: 0.272 µM (active)
GI50 [35]: 0.352 µM (active)
GI50 [36]: 0.789 µM (active)
GI50 [37]: 25.1 µM (inactive)
GI50 [38]: 11.4 µM (inactive)
GI50 [39]: 13.9 µM (inactive)
GI50 [40]: 1.93 µM (inactive)
GI50 [41]: 16 µM (inactive)
GI50 [42]: 12.9 µM (inactive)
GI50 [43]: 21.9 µM (inactive)
GI50 [44]: 0.551 µM (active)
GI50 [45]: 0.855 µM (active)
GI50 [46]: 0.234 µM (active)
GI50 [47]: 0.143 µM (active)
GI50 [48]: 0.406 µM (active)
GI50 [49]: 3.11 µM (inactive)
GI50 [50]: 0.361 µM (active)
GI50 [51]: 0.728 µM (active)
GI50 [52]: 0.074 µM (active)
GI50 [53]: 0.748 µM (active)
GI50 [54]: 1.04 µM (active)
GI50 [55]: 0.334 µM (active)
GI50 [56]: 42.7 µM (inactive)
GI50 [57]: 1.54 µM (inactive)
GI50 [58]: 1.02 µM (active)
GI50 [59]: 2.42 µM (inactive)
GI50 [60]: 0.306 µM (active)
GI50 [61]: 3.44 µM (inactive)
GI50 [62]: 0.408 µM (active)
GI50 [63]: 1.74 µM (inactive)
GI50 [64]: 0.735 µM (active)
GI50 [65]: 0.372 µM (active)
GI50 [66]: 0.366 µM (active)

O=C(Oc1ccc2c(-c3ccccc3)c(C(=O)Nc3ccc(Cl)cc3)c(=O)oc2c1)c1ccccc1
GI50 [1]: > 100 µM (inactive)
GI50 [3]: > 100 µM (inactive)
GI50 [4]: > 100 µM (inactive)
GI50 [7]: > 100 µM (inactive)
GI50 [8]: > 100 µM (inactive)
GI50 [9]: > 100 µM (inactive)
GI50 [10]: 65.3 µM (inactive)
GI50 [11]: > 100 µM (inactive)
GI50 [13]: > 100 µM (inactive)
GI50 [15]: > 100 µM (inactive)
GI50 [16]: > 100 µM
GI50 [17]: > 100 µM (inactive)
GI50 [18]: > 100 µM (inactive)
GI50 [19]: > 100 µM (inactive)
GI50 [21]: > 100 µM (inactive)
GI50 [23]: > 100 µM (inactive)
GI50 [24]: > 100 µM (inactive)
GI50 [25]: > 100 µM (inactive)
GI50 [26]: > 100 µM (inactive)
GI50 [27]: > 100 µM (inactive)
GI50 [29]: > 100 µM (inactive)
GI50 [67]: > 100 µM (inactive)
GI50 [34]: 74.1 µM (inactive)
GI50 [35]: > 100 µM (inactive)
GI50 [36]: > 100 µM (inactive)
GI50 [37]: > 100 µM (inactive)
GI50 [38]: > 100 µM (inactive)
GI50 [39]: > 100 µM (inactive)
GI50 [41]: > 100 µM (inactive)
GI50 [44]: > 100 µM (inactive)
GI50 [46]: > 100 µM (inactive)
GI50 [47]: > 100 µM (inactive)
GI50 [49]: > 100 µM (inactive)
GI50 [50]: > 100 µM (inactive)
GI50 [51]: > 100 µM (inactive)
GI50 [52]: > 100 µM (inactive)
GI50 [53]: > 100 µM (inactive)
GI50 [54]: > 100 µM (inactive)
GI50 [55]: > 100 µM (inactive)
GI50 [56]: > 100 µM (inactive)
GI50 [57]: 52.2 µM (inactive)
GI50 [60]: > 100 µM (inactive)
GI50 [62]: > 100 µM (inactive)
GI50 [63]: > 100 µM (inactive)
GI50 [64]: > 100 µM (inactive)
GI50 [65]: > 100 µM (inactive)
GI50 [66]: > 100 µM (inactive)
GI50 [68]: 58.1 µM (inactive)

— ChEMBL document CHEMBL1201862, “PubChem BioAssay data set” (2004)
